Experimental data published in the supplement of paper PMC10307832.

Compound: C[C@@]1(C(=O)Nc2ccc(F)nc2)CCCN1c1nc(Nc2cc(C3CC3)n[nH]2)c2cccn2n1 + CCNC(=O)c1noc(-c2cc(C(C)C)c(O)cc2O)c1-c1ccc(CN2CCOCC2)cc1 [Luminespib] (partner 0.01 µM)
Experiment: relative viability (nuclei count vs DMSO), 5 days (fraction); higher = more cells survive
Settings: first compound 1.265 µM
Summary of the method: (§1)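 Lung cancer cell lines were seeded in 1536-well plates and dosed by pin tool the next day, with either a single drug or a fixed anchor-drug dose combined with five library-drug doses (not always all listed) spaced in √10 steps. Five days later, one step fixed the cells and stained their nuclei (final 0.05% Triton X-100, 1% formaldehyde, 1 ug/ml Hoechst), and nuclei were counted on 4× images. Relative viability is the nuclei count in treated wells divided by the count in vehicle wells, and each value is the median of duplicate plates.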

Cell Line	relative viability
HOP-62	1.01
HCC-44	0.732
NCI-H522	0.974
LU99A	0.181
BEN	0.325
HARA	0.881
SW 900	0.155
NCI-H322M	0.566
LCLC-97TM1	0.378
NCI-H2009	1.07
NCI-H1563	0.528
ABC-1	0.308

Compound: C[C@@]1(C(=O)Nc2ccc(F)nc2)CCCN1c1nc(Nc2cc(C3CC3)n[nH]2)c2cccn2n1 + CC(=O)Nc1cccc(-n2c(=O)n(C3CC3)c(=O)c3c(Nc4ccc(I)cc4F)n(C)c(=O)c(C)c32)c1 [Trametinib] (partner 0.02 µM)
Experiment: as above
Settings: first compound 0.04 µM
Summary of the method: as §1

Cell Line	relative viability
NCI-H2342	0.668
NCI-H727	0.312
NCI-H1650	0.672
NCI-H1993	0.468
SW 1573	0.496
NCI-H838	0.496
LCLC-103H	0.668
NCI-H520	0.753
NCI-H2126	0.447
EMC-BAC-2	0.801
NCI-H2085	0.929
HCC-366	0.4
NCI-H1666	0.826
NCI-H596	0.912
LK-2	0.426
NCI-H2087	0.158
NCI-H1648	0.391
SK-MES-1	0.604

Cell Line	relative viability
H3255	0.543
COR-L23	0.59
COR-L 105	0.44
LOU-NH91	0.737
ChaGo-K-1	0.827
NCI-H2170	0.951
NCI-H2405	0.461
HOP-62	0.406
HCC-44	0.879
NCI-H522	0.692
LU99A	0.411
BEN	1.07
HARA	0.66
SW 900	0.764
HCC-78	0.637
NCI-H322M	0.435
LCLC-97TM1	0.232
NCI-H2009	0.297

Same assay, conditions: first compound 0.1265 µM

Cell Line	relative viability
NCI-H2342	0.813
NCI-H727	0.283
NCI-H1650	0.5
NCI-H1993	0.42
SW 1573	0.389
NCI-H838	0.46
LCLC-103H	0.613
NCI-H520	0.571
NCI-H2126	0.346
EMC-BAC-2	0.533
NCI-H2085	0.471
HCC-366	0.197
NCI-H1666	0.688
NCI-H596	0.72
LK-2	1.15
NCI-H2087	0.161
NCI-H1648	0.285
SK-MES-1	0.483
H3255	0.573
COR-L23	0.542
COR-L 105	0.42
LOU-NH91	0.845
ChaGo-K-1	0.869
NCI-H2170	0.966
NCI-H2405	0.382
HOP-62	0.303
HCC-44	0.871
NCI-H522	0.696
LU99A	0.352
BEN	1.01
